Key:
[1] = Parallel Artificial Membrane Permeability Assay (PAMPA), GI; format: in vitro ADME; details: GI (intestinal) PAMPA, value in brackets
Procedure: Parallel Artificial Membrane Permeability Assay (PAMPA). Donor solution (0.5 mM) was prepared by diluting 1 mM dimethylsulfoxide (DMSO) compound stock solution using phosphate buffer (pH 7.4, 0.025 M). Filters were coated with 5 μL of a 1% (w/v) dodecane solution of phosphatidylcholine prepared from CHCl3 solution 10% w/v, for intestinal permeability. Donor solution (150 μL) was added to each well of the filter plate. To each well of the acceptor plate were added 300 μL of solution (50% DMSO in phosphate buffer). All compounds were tested in three different plates on different days. The sandwich was incubated for 5 h at room temperature under gentle shaking. After the incubation time, the plates were separated, and samples were taken from both receiver and donor sides and analyzed using LC with UV detection at 280 nm.
LC analysis were performed with a Varian Prostar HPLC system (Varian Analytical Instruments, USA) equipped with a binary pump with a manual injection valve and model Prostar 325 UV-VIS Detector. Chromatographic separations were conducted using a Polaris C18-A column (150-4.6 mm, 5 μm particle size) at a flow rate of 0.8 mL min^−1 with a mobile phase composed of 60% ACN/40% H2O.
Permeability (Papp) for PAMPA was calculated according to the following equation, obtained from Wohnsland and Faller and Sugano et al. equation with some modification in order to obtain permeability values in cm s^−1,
where VA is the volume in the acceptor well, VD is the volume in the donor well (cm^3), A is the “effective area” of the membrane (cm^2), t is the incubation time (s) and r the ratio between drug concentration in the acceptor and equilibrium concentration of the drug in the total volume (VD+VA). Drug concentration is estimated by using the peak area integration.
Membrane retentions (%) were calculated according to the following equation: […]
where r is the ratio between drug concentration in the acceptor and equilibrium concentration, D, A, and Eq represented drug concentration in the donor, acceptor and equilibrium solution, respectively.

Water Solubility Assay = format: physicochemical; details: for LogS: from aqueous solubility; for Aq. Solub.: water, room temperature, 24-36 h
Procedure: Water Solubility Assay. Each solid compound (1 mg) was added to 1 mL of water. The samples were shaked in a shaker bath at room temperature for 24-36 h. The suspensions were filtered through a 0.45 μm nylon filter (Acrodisc), and the solubilized compound determined by LC-MS-MS assay. For each compound the determination was performed in triplicate.
(§1) For the quantification was used an LC-MS system consisted of a Varian apparatus (Varian Inc) including a vacuum solvent degassing unit, two pumps (212-LC), a Triple Quadrupole MSD (Mod. 320-LC) mass spectrometer with ES interface and Varian MS Workstation System Control Vers. 6.9 software. Chromatographic separation was obtained using a Pursuit C18 column (50×2.0 mm) (Varian) with 3 μm particle size and gradient elution: eluent A being ACN and eluent B consisting of water. […] The flow rate was 0.2 mL min^−1 and injection volume was 5 μL. The instrument operated in positive mode and parameters were: detector 1850 V, drying gas pressure 25.0 psi, desolvation temperature 300.0° C., nebulizing gas 40.0 psi, needle 5000 V and shield 600 V. Nitrogen was used as nebulizer gas and drying gas. Collision induced dissociation was performed using Argon as the collision gas at a pressure of 1.8 mTorr in the collision cell. Microsomal Stability Assay. […] The reaction was stopped by cooling on ice and adding 1.0 mL of acetonitrile. The reaction mixtures were then centrifuged, and the parent drug and metabolites were subsequently determined by LC-UV-MS. Chromatographic analysis was performed with an Agilent 1100 LC/MSD VL system (G1946C) (Agilent Technologies, Palo Alto, Calif.) constituted by a vacuum solvent degassing unit, a binary high-pressure gradient pump, an 1100 series UV detector, and an 1100 MSD model VL benchtop mass spectrometer.

[2] = tested on: Human breast adenocarcinoma cell line (MDA-MB-231); assay: Cytotoxicity test / growth inhibition, MDA-MB-231; format: cell-based; details: MDA-MB-231, 48 hours, cell counting
Procedure: (§2) Cells were purchased from American Type Culture Collection (ATCC, Manassas, Va., USA). The LNCaP (ATCC® CRL-1740™), A549 (ATCC® CCL-185™), MDA-MB-231 (ATCC® CRM-HTB-26™), 22Rv1 (ATCC® CRL-2505™), HCT-116 (ATCC® CCL-247™) and PC3 (ATCC® CRL-1435™) cells were maintained in Roswell Park Memorial Institute 1640 medium (RPMI; Euroclone, ECB9006L) supplemented with 10% fetal bovine serum (Euroclone; ECS0180L), 2 mM L-glutamine, 100 units/mL penicillin and […] streptomycin at 37° C. in an atmosphere of 5% CO2/air. DU145 (ATCC® HTB-81™), and DAOY (ATCC® HTB-186™) cells were maintained in Eagle's minimal essential medium (EMEM; Euro-clone, ECM0445L) supplemented with 10% fetal bovine serum (Euroclone; ECS0180L), 2 mM L-glutamine, 100 units/ml penicillin and […] streptomycin at 37° C. in an atmosphere of 5% CO2/air. SH-SY5Y (ATCC® CRL-2266™), DBRTG (ATCC® CRL-2020™), HeLa (ATCC® CCL-2™), HN6 cells (kindly provided by Dr Silvio Gutkind, UCSD Medical Center, Moores Cancer Center USA, Chen J. J et al, Oncotarget 2013, 4, 206-217)), U2OS (ATCC® HTB-96™), RD18 cells (kindly provided by Dr P. Boccuni Memorial Sloan-Kettering Cancer Center, New York, USA Vella S. et al. Clin Epigenetics. 2015 6; 7-82), cells were maintained in Dulbecco's modified Eagle's medium (DMEM; Euroclone, ECB7501L) supplemented with 10% fetal bovine serum (Euroclone; ECS0180L), 2 mM L-glutamine, 100 units/ml penicillin and […] streptomycin at 37° C. in an atmosphere of 5% CO2/air.
(§3) Cell lines were seeded at appropriate densities in 2 mL growth medium in 6-wells culture plates 24 hours before the treatment with the inhibitor compounds. After 24 h the culture medium was removed and fresh medium containing increasing concentrations of chemical compounds was added to cells. The fixed final concentrations were: 0.1 μM, 1 μM, 10 μM, 100 μM. DMSO was the vehicle used for dilution of the compounds and its final concentration on cells was less than 0.2%. Medium-only containing wells were included as controls. Cells were incubated 48 hours with drugs and, then, cell viability was evaluated.
(§4) Cells were detached from each well of the 6-wells plates with 300 μL of Trypsin and suspended in culture medium to a final volume of 1 mL. Cell viability was then assessed through cell counting. Cells were diluted in 1:50 ratio of an isotonic buffered diluent, Isoton (Backman Coulter), following the manufacturer's instructions, and counted using an automated cell counter (Z2 series Coulter Counter, Beckman Coulter). Each cell count was performed in three replicates. The values corresponding to the relative survival of cells in presence of each chemical compound at single concentrations were normalized to the untreated controls. Then, the half maximal inhibitory concentration (IC50) value, which represent the drug concentration that is required to induce a 50% growth inhibition in vitro, was calculated with GraphPad Prism 6.0 software using the best fitting sigmoid curve.

[3] = molecular target: T1, Human recombinant DDX3 (DDX3 wt helicase) (Homo sapiens, UniProt O00571); assay: Helicase assay (anti-enzymatic activity against the DDX3 helicase); format: biochemical; details: for activity compared with compound EI01D: DDX3 helicase inhibition relative to EI01D
T1 construct: made in house
Procedure: The helicase activity of DDX3 wt was monitored by measuring the conversion of a double stranded (ds) RNA (labelled at the 5′-end of one strand with a 6-FAM fluorescent) into single stranded (ss) nucleic acid. A final concentration of 25 nM RNA substrate was used in the experiments, unless otherwise stated. Reactions were performed in 50 mM TrisHCl pH 7.5, 1 mM DTT, 0.2 mg/ml BSA, 5% glycerol and 100 μM ATP, 10 mM MgCl2 at 37° C. degrees for 10′ and stopped by adding EDTA 50 mM pH 8. Products were separated through non-denaturating 8% PAGE at 5 W for 4 hours in TBE buffer at 4° C. Substrates and products were quantified by laser scanning densitometry (Thyphoon-TRIO, GE Healthcare).
Human recombinant DDX3 was cloned, expressed and purified as described (Franca et al. Proteins 2007, 67, 1128-37).

[4] = tested on: Human head and neck squamous carcinoma cell line (HN6); assay: Cytotoxicity test / growth inhibition, HN6; format: cell-based; details: HN6, 48 hours, cell counting
Procedure: as §2, §3, §4

[5] = tested on: Human osteosarcoma cell line (U2OS); assay: Cytotoxicity test / growth inhibition, U2OS; format: cell-based; details: 48 hours, cell counting
Procedure: as §2, §3, §4

[6] = tested on: Human adenocarcinomic alveolar basal epithelial cell line (A549); assay: Cytotoxicity test / growth inhibition, A549; format: cell-based; details: A549, 48 hours, cell counting
Procedure: as §2, §3, §4

[7] = Microsomal Stability Assay (HLM); format: in vitro ADME; details: human liver microsomes, 37° C., 60 min, NADPH-generating system; percentage of not metabolized compound
Description: as §1
Chromatographic separation was obtained using a Varian Polaris C18-A column (150-4.6 mm, 5 μm particle size) and gradient elution: eluent A being ACN and eluent B consisting of water. […] The flow rate was 0.8 mL min^−1 and injection volume was 20 μL.
The Agilent 1100 series mass spectra detection (MSD) single-quadrupole instrument was equipped with the orthogonal spray API-ES (Agilent Technologies, Palo Alto, Calif.). Nitrogen was used as nebulizing and drying gas. The pressure of the nebulizing gas, the flow of the drying gas, the capillary voltage, the fragmentor voltage, and the vaporization temperature were set at 40 psi, 9 L/min, 3000 V, 70 V, and 350° C., respectively. UV detection was monitored at 280 nm. The LC-ESI-MS determination was performed by operating the MSD in the positive ion mode. Spectra were acquired over the scan range m/z 100-1500 using a step size of 0.1 u. The percentage of not metabolized compound was calculated by comparison with reference solutions.

T1 sequence (O00571 whole entry): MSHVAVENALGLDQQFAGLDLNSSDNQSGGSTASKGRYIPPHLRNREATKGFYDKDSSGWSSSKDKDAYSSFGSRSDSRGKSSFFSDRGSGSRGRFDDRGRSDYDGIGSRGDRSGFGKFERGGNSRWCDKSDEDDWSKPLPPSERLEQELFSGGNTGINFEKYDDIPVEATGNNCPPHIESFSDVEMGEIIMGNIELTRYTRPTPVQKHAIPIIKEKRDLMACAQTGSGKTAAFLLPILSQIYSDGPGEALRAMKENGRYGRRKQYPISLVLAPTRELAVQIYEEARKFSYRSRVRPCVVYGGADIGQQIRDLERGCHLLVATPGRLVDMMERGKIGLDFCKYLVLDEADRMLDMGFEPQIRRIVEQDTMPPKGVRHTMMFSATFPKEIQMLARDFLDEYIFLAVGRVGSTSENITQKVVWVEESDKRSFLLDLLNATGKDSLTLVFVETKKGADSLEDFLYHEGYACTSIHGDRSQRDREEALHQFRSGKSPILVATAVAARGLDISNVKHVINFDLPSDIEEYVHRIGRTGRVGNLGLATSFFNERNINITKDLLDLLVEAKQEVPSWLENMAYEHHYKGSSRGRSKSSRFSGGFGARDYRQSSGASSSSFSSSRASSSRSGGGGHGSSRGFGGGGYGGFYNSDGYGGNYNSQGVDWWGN

For `Cc1ccccc1NC(=O)Nc1ccc(-n2cc(CCC(C)C)nn2)cc1` [Compound 20b, 1-(4-(4-isopentyl-1H-1,2,3-triazol-1-yl)phenyl)-3-o-tolylurea], the “PAMPA GI (RM %) membrane retention” value [1] was 26.7%, the LogS (Water Solubility Assay) was less than −8.6 and the “Aq. Solub.” value (Water Solubility Assay) was less than 0.001 µg/mL.

For `COCCc1cn(-c2ccc(NC(=O)Nc3ccccc3C)cc2)nn1` [Compound 20f, 1-(4-(4-(2-methoxyethyl)-1H-1,2,3-triazol-1-yl)phenyl)-3-o-tolylurea], the “PAMPA GI (RM %) membrane retention” value [1] was 7.4%.

In the case of `Cc1c(Cl)cccc1NC(=O)Nc1ccc(-n2cc(CCC(C)C)nn2)cc1` [Compound 21b, 1-(3-chloro-2-methylphenyl)-3-(4-(4-isopentyl-1H-1,2,3-triazol-1-yl)phenyl)urea], the “PAMPA GI (RM %) membrane retention” value [1] is reported as 59.1%, the LogS (Water Solubility Assay) is reported as less than −8.6 and the “Aq. Solub.” value (Water Solubility Assay) is reported as less than 0.001 µg/mL.

For `CC(C)CCc1cn(-c2ccc(NC(=O)Nc3ccccc3C(F)(F)F)cc2)nn1` [Compound 22b, 1-(4-(4-isopentyl-1H-1,2,3-triazol-1-yl)phenyl)-3-(2-(trifluoromethyl)phenyl)urea], the IC50 [2] was 13.1 µM, the “activity compared with compound EI01D” value [3] was “approximately ten-fold more active” and the “PAMPA GI (RM %) membrane retention” value [1] was 24.8%. For the same compound, the LogS (Water Solubility Assay) was less than −8.6.

`CCCC(C)C(F)c1cn(-c2ccc(NC(=O)Nc3ccccc3C(F)(F)F)cc2)nn1` (stereo not shown) [Compound 42c, 1-(4-(4-(1-fluoro-2-methylpentyl)-1H-1,2,3-triazol-1-yl)phenyl)-3-(2-(trifluoromethyl)phenyl) urea] showed an IC50 [2] of 33.6 µM, an IC50 [4] of 6.32 µM and an IC50 [5] of 22.5 µM. For the same compound, the IC50 [6] was 57.2 µM.

For `CCOCn1nnc(-c2ccc(NC(=O)Nc3ccccc3C)cc2)n1` [Compound 50, 1-(4-(2-(ethoxymethyl)-2H-tetrazol-5-yl)phenyl)-3-(o-tolyl)urea], the IC50 [2] was 23.5 µM.

With `CCCCn1nnc(-c2ccc(NC(=O)Nc3ccccc3C(F)(F)F)cc2)n1` [Compound 51, 1-(4-(2-butyl-2H-tetrazol-5-yl)phenyl)-3-(2-(trifluoromethyl)phenyl)urea] the IC50 [4] was 16.4 µM and the IC50 [5] was 51.5 µM.

With `CC(C)CCc1cn(-c2ccc(NC(=O)Nc3ccccc3F)cc2)nn1` [Compound 55a, 1-(2-fluorophenyl)-3-(4-(4-isopentyl-1H-1,2,3-triazol-1-yl)phenyl)urea] the “activity compared with compound EI01D” value [3] was “approximately ten-fold more active”.

In the case of `CC(C)CCc1cn(-c2ccc(NC(=O)Nc3cccc(F)c3)cc2)nn1` [Compound 55b, 1-(3-fluorophenyl)-3-(4-(4-isopentyl-1H-1,2,3-triazol-1-yl)phenyl)urea], the “activity compared with compound EI01D” value [3] is reported as “approximately ten-fold more active”.

For `CCCCc1cn(-c2ccc(NC(=O)Nc3ccccc3C(F)(F)F)cc2F)nn1` [Compound 81, 1-(4-(4-butyl-1H-1,2,3-triazol-1-yl)-3-fluorophenyl)-3-(2-(trifluoromethyl)phenyl)urea], the IC50 [2] was 25.1 µM, the “PAMPA GI (RM %) membrane retention” value [1] was 30.4% and the Sability % [7] was 94%.

In the case of `CC(C)CCc1cn(-c2ccc(NC(=O)Nc3ccccc3C(F)(F)F)cn2)nn1` [Compound 86, 1-(6-(4-isopentyl-1H-1,2,3-triazol-1-yl)pyridin-3-yl)-3-(2-(trifluoromethyl)phenyl)urea], the IC50 ([3]; DDX3 helicase activity, dsRNA unwinding, n.a = Compound not active, read-out: ID50 (the source's name)) is reported as 51 µM.

Compound `CCCCc1nnc(-c2ccc(NC(=O)Nc3ccccc3C(F)(F)F)cc2)s1` [Compound 124, 1-(4-(5-butyl-1,3,4-thiadiazol-2-yl)phenyl)-3-(2-(trifluoromethyl)phenyl)urea] has an IC50 [5] of 60.1 µM.

Source: patent US11000512B2, “Use of DDX3 inhibitors as antiproliferative agents” (AZIENDA OSPEDALIERA UNIVERSITARIA SENESE, priority 2016, dated 2021)
